{"source": "paper PMC8951016", "about": "“Computational Design and Biological Evaluation of Analogs of Lupin Peptide P5 Endowed with Dual PCSK9/HMG-CoAR Inhibiting Activity” (Pharmaceutics, 2022)", "test_system": "PCSK9", "assay": "Western blot, PCSK9 protein level in HepG2", "format": "cell-based, human", "details": "active at 50 µM in hepatic cells vs 250 µM; PCSK9 protein level and secretion", "procedure": "A total of 1.5 × 10^5 HepG2 cells/well (24-well plate) were treated with 50 μM of P5 and P5 analogs for 24 h. Immunoblotting experiments were performed using optimized protocol. See Supplementary Materials for further details.\nPBS for 1.5 h at RT. LDLR primary antibody solution (1:3000 in 5% BSA in PBS, 25 µL/well) was incubated O/N at +4 °C. Subsequently, the primary antibody solution was discarded and each sample was washed 5 times with 100 µL/well of PBS (each wash was for 5 min at RT). Goat anti-rabbit Ig-HRP secondary antibody solution (Santa Cruz) (1:6000 in 5% BSA in PBS, 50 µL/well), was added and incubated 1 h at RT. […] The reaction was stopped with 2 M H2SO4 and then the absorbance at 450 nm was measured using the microplate reader Synergy H1 (Winoo-ski, VT, USA). After the read, cells were stained by adding 1 X Janus Green stain, incubat-ing for 5 min at RT. […]\nAfterward 100 µL 0.5 M HCl for well were added and incubated for 10 min. After 10 sec-onds shaking, the OD at 595 nm was measured using the microplate reader Synergy H1 […]\nFluorescent LDL Uptake. […] The degree of LDL uptake was measured using the Synergy H1 fluo-rescent plate reader (Winooski, VT, USA) (excitation and emission wavelengths 540 and 570 nm, respectively). Fluorescent LDL-uptake was finally assessed following optimized […]", "data": [{"sequence": "LILPKHSDAD [Peptide P5, natural peptide derived from a peptic lupin protein hydrolysate]", "values": [{"measurement": "fold potency vs YVVNPDNNEN", "value": "5 -fold"}]}]}
